According to patent US20250136578A1 (Kolm Therapeutics Inc., priority 2023, published 2025):

Experiments:
VCaP cells = assay: VCaP growth inhibition assay (CTG); assay type: cell-based; conditions: Homo sapiens, 216 h, 30 pM R1881, 9 days
Method: VCaP cells (ATCC Cat #CRL-2876) are plated at 1×10^4 cells per well of a white plastic 96-well cluster plate (Thermo Scientific Nunc Cat #165306) in 100 uL phenol red-free DMEM (Gibco Cat #21063-029) media with 5% CSS (Omega Scientific Cat #FB-04). Cluster plates are returned to the incubator (37*C/5% CO2) for 72 hours prior to treatment. Just prior to treatment, 100 uL of phenol red-free DMEM/5% CSS and 60 pM R1881 (Sigma Cat #R0908-10 mg) was added to each well of the cluster plates (Final R1881 concentration=30 pM). Compounds (200X) were added to each well in a volume of 1 uL, with serial dilutions (1:5) from 20 uM to 2 pM (final concentrations in well are 100 nM to 10 fM). Cluster plates are returned to the incubator for 9 days.
After the 9-day treatment period, media was removed from the cluster plates by inversion and 100 uL room temperature CTG reagent (Promega Cat #G7573) is added to each well. The cluster plates are placed on a shaker and incubated at room temperature for 20 minutes. Following this shaking/incubation, cluster plates are read on a luminometer (BMG ClarioStar). IC50 values are obtained by graphing the RLU data vs. compound concentration with nonlinear regression 4-parameter logistic curves (GraphPad Prism).

AR / CBP ternary complex = AR / CBP ternary complex (Homo sapiens, UniProt P10275+Q92793); assay: Ternary complex formation assay (sandwich ELISA, AR capture, CBP antibody detection) in VCaP cell lysates; assay type: cell-based; conditions: treated 1.5 hours, rabbit CBP or p300 antibody detection, average, read-out: Average Ternary Complex
Method: Black MaxiSorp plates: coat with 50 μL of mouse 1/50 diluted AR antibody (Monoclonal Antibody (AR 441 from Thermo Fisher); diluted in phosphate buffered saline (PBS). Spin the liquid to the bottom of the wells, if necessary. Incubate overnight at 4° C. Next day, wash 3 times with 200 μL of TBST. Block with 200 μL of blocking buffer (5% BSA in TBST) at room temperature for 2 hours (BSA: A4503 or A2153 from Sigma). Wash plates 3 times with TBST. Plates are ready for lysates Preparation of dimerizer treated lysates
Culture cells in 96 wells at 50K VCaP cells/well for at least 3 days. Plate in 5% Omega charcoal stripped FBS in total volume of 200 uL. Treat with bifunctional for 1.5 hours by adding 1 μL of 200× stock in DMSO. Aspirate media/compound. Add and pipet-to-mix 70 μL of 1× AlphaLisa Lysis Buffer to each well (Perkin Elmer, AlphaLISA SureFire Ultra, diluted in water). Pipet up and down when adding lysis buffer to disrupt cells. Let lysis proceed for 30 min at 4° C.
Incubate for 1 hour at room temperature. Flick out the lysates. Wash 3 times with TBST. Add 75 μL of rabbit CBP or p300 antibody to each well (diluted 1:5000 in blocking buffer (5% BSA in TBST). CBP antibody: (D6C5) Rabbit mAb #7389; p300 antibody: (D8Z4E) Rabbit mAb #86377. Incubate overnight at 4° C. Wash 3 times with 300 uL TBST, each time on shaker for 5-10 min. Prepare goat anti-rabbit antibody conjugated to HRP (1/100K dilution in blocking buffer) Invitrogen Catalog number: 32260. Add 75 μL of HRP-conjugated goat anti-rabbit antibody. Incubate at room temperature for 1 hour. Flick out the HRP-antibody mixture. Wash 7-8 times with TBST, each time on shaker for 10 min. Later washes try to overflow the wells so that no residual HRP remains bound to the sides of the well. Prepare and add 75 uL/well of QuantaRed Enhance Chemifluorescent HRP Substrate solution. Immediately read fluorescence on BMG ClarioStar (ex: 570/em 585), and repeat the read in 5 minutes and 15 minutes.

AR / CBP ternary complex, sequence (P10275 whole entry): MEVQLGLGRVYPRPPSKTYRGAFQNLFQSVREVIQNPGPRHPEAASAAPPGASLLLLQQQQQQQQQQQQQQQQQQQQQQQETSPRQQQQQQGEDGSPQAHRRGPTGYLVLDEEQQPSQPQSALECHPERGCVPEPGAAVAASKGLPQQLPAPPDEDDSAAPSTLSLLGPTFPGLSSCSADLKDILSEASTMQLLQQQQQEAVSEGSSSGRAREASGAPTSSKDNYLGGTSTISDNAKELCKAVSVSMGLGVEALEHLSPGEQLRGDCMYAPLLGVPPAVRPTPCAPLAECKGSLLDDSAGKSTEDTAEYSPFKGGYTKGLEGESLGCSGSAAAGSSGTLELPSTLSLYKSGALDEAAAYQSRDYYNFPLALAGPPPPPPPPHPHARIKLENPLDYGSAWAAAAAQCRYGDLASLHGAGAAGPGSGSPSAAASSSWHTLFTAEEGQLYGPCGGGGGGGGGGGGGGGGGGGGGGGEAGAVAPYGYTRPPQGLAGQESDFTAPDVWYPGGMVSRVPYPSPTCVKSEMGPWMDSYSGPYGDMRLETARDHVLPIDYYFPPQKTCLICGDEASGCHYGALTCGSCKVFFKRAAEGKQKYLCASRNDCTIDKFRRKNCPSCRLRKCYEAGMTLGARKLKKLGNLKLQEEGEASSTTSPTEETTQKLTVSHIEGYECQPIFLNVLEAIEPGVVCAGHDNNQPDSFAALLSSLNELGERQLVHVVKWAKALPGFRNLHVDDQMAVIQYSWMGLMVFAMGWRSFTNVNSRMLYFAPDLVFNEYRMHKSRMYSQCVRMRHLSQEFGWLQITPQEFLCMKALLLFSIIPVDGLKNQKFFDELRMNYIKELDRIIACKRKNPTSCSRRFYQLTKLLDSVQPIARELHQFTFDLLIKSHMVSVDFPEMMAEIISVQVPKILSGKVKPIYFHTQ
AR / CBP ternary complex, sequence (Q92793 2-2442): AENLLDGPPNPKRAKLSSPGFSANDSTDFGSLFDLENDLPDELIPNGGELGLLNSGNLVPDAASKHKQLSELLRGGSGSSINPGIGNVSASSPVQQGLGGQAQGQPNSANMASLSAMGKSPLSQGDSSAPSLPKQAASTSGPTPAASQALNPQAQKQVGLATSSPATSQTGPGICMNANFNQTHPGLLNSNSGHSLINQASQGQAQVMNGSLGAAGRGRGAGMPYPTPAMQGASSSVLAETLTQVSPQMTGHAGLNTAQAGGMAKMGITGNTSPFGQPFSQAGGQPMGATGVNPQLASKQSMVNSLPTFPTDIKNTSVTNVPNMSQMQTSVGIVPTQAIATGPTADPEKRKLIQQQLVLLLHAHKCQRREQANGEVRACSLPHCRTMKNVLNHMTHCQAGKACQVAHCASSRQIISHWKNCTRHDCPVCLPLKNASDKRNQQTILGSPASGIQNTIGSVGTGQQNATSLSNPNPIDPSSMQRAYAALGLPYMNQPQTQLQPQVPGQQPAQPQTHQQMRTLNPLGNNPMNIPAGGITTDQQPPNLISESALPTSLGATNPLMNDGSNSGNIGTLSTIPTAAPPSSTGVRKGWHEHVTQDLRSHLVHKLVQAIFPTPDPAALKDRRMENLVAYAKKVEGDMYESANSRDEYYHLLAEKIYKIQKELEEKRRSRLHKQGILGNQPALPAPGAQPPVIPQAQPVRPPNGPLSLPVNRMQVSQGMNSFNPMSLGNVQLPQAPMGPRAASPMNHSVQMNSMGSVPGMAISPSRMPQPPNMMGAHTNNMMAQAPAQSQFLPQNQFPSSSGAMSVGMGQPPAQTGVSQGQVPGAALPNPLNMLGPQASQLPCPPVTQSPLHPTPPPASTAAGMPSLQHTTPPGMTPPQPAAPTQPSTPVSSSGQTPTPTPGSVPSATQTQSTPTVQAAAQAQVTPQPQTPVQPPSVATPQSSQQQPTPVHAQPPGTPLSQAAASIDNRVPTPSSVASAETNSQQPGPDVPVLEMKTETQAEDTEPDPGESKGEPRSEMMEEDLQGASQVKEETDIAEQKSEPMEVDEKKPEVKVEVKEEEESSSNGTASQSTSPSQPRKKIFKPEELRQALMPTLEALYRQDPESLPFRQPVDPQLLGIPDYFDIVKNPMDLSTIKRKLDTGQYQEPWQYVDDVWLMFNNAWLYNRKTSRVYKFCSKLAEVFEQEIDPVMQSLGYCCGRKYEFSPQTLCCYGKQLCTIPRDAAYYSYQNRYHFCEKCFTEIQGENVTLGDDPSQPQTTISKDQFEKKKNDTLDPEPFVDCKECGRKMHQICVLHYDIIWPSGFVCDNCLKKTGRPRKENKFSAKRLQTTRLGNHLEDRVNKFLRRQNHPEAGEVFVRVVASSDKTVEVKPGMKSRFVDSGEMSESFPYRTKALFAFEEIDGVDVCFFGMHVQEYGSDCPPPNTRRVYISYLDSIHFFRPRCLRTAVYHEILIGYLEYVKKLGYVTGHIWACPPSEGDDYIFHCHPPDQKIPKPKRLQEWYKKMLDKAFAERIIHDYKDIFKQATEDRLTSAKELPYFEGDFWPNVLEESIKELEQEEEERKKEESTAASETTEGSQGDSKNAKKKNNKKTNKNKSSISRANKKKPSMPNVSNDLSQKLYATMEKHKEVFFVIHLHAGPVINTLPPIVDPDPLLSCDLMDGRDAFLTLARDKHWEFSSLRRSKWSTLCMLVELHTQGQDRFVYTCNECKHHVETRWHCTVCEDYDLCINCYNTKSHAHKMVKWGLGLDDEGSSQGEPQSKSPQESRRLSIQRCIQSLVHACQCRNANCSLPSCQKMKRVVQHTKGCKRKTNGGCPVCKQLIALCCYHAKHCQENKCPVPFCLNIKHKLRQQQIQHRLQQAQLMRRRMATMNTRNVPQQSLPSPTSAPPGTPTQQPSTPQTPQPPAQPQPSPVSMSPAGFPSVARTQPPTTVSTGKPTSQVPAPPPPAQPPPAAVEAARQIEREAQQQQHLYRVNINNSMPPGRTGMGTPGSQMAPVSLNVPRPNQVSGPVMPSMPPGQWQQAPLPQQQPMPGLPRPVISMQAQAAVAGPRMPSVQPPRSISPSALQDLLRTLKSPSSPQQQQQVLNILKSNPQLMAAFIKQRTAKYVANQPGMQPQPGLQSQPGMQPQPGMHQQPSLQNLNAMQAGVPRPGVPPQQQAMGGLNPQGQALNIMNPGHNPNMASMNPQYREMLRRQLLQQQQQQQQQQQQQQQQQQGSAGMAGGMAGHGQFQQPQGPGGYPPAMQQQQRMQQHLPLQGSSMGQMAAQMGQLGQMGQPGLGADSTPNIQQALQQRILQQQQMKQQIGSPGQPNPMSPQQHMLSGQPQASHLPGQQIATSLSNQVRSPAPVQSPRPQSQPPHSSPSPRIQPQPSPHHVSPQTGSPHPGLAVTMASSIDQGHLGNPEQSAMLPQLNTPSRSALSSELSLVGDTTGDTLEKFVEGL

| SMILES | IC50 (VCaP cells) | EC50 (AR / CBP ternary complex) |
| --- | --- | --- |
| CC(=O)N1CCc2c(c(N3CCCc4cc(-c5cnn(C)c5)c(C(F)F)cc43)nn2[C@H]2CC[C@H](N(C)C3CCN(c4ccc(C(=O)N[C@H]5CC[C@H](Oc6ccc(C#N)c(Cl)c6)CC5)nn4)CC3)CC2)C1 [Compound 187, 6-[4-[[4-[5-acetyl-3-[7-(difluoromethyl)-6-(1-methylpyrazol-4-yl)-3,4-dihydro-2H-quinolin-1-yl]-6,7-dihydro-4H-pyrazolo[4,3-c]pyridin-1-yl]cyclohexyl]-methyl-amino]-1-piperidyl]-N-[4-(3-chloro-4-cyano-phenoxy)cyclohexyl]pyridazine-3-carboxamide] | ≤ 0.1 nM | – |
| CC(=O)N1CCc2c(c(-c3cccc4cc(-c5cnn(CC6CCN(c7ccc(C(=O)N[C@H]8CC[C@H](Oc9ccc(C#N)c(Cl)c9)CC8)nn7)CC6)c5)ncc34)nn2C)C1 [Compound 7, 6-[4-[[4-[8-(5-acetyl-1-methyl-6,7-dihydro-4H-pyrazolo[4,3-c]pyridin-3-yl)-3-isoquinolyl]pyrazol-1-yl]methyl]-1-piperidyl]-N-[4-(3-chloro-4-cyano-phenoxy)cyclohexyl]pyridazine-3-carboxamide] | ≤ 0.1 nM | – |
| CC(=O)N1CCc2c(c(N3CCCc4cc(-c5cnn(C)c5)c(C(F)F)cc43)nn2[C@H]2CC[C@@H](N(C)C3CCN(c4ccc(C(=O)N[C@H]5CC[C@H](Oc6ccc(C#N)c(Cl)c6)CC5)nn4)CC3)CC2)C1 [Compound 189, 6-[4-[[4-[5-acetyl-3-[7-(difluoromethyl)-6-(1-methylpyrazol-4-yl)-3,4-dihydro-2H-quinolin-1-yl]-6,7-dihydro-4H-pyrazolo[4,3-c]pyridin-1-yl]cyclohexyl]-methyl-amino]-1-piperidyl]-N-[4-(3-chloro-4-cyano-phenoxy)cyclohexyl]pyridazine-3-carboxamide] | ≤ 0.1 nM | – |
| COC1(CN2CCC(n3nc(N4CCCc5cc(-c6cnn(C)c6)c(C(F)F)cc54)c4c3CCN(C(C)=O)C4)CC2)CCN(c2ccc(C(=O)N[C@H]3CC[C@H](Oc4ccc(C#N)c(Cl)c4)CC3)nn2)CC1 [Compound 177, 6-[4-[[4-[5-acetyl-3-[7-(difluoromethyl)-6-(1-methylpyrazol-4-yl)-3,4-dihydro-2H-quinolin-1-yl]-6,7-dihydro-4H-pyrazolo [4,3-c]pyridin-1-yl]-1-piperidyl]methyl]-4-methoxy-1-piperidyl]-N-[4-(3-chloro-4-cyano-phenoxy)cyclohexyl]pyridazine-3-carboxamide] | ≤ 0.1 nM | – |
| CC(=O)N1CCc2c(c(N3CCCc4cc(-c5cnn(C)c5)c(C(F)F)cc43)nn2[C@H]2CCC3(CC2)C[C@H](Oc2ccc(C(=O)N[C@H]4CC[C@H](Oc5ccc(C#N)c(Cl)c5)CC4)nn2)C3)C1 (mixture of isomers) [Compound 235, 6-((7-(5-acetyl-3-(7-(difluoromethyl)-6-(1-methyl-1H-pyrazol-4-yl)-3,4-dihydroquinolin-1(2H)-yl)-4,5,6,7-tetrahydro-1H-pyrazolo[4,3-c]pyridin-1-yl)spiro[3.5]nonan-2-yl)oxy)-N-((1SR,4SR)-4-(3-chloro-4-cyanophenoxy)cyclohexyl)pyridazine-3-carboxamide] | – | < 1 nM |
| CC(=O)N1CCc2c(c(N3CCCc4cc(-c5cnn(C)c5)c(C(F)F)cc43)nn2C2CCN(C3CCC4(C3)CN(c3ccc(C(=O)N[C@H]5CC[C@H](Oc6ccc(C#N)c(Cl)c6)CC5)nn3)C4)CC2)C1 (stereo partly shown) [Compound 227, 6-[6-[4-[5-acetyl-3-[7-(difluoromethyl)-6-(1-methylpyrazol-4-yl)-3,4-dihydro-2H-quinolin-1-yl]-6,7-dihydro-4H-pyrazolo[4,3-c]pyridin-1-yl]-1-piperidyl]-2-azaspiro[3.4]octan-2-yl]-N-[4-(3-chloro-4-cyano-phenoxy)cyclohexyl]pyridazine-3-carboxamide] | – | < 1 nM |
| CC(=O)N1CCc2c(c(N3CCCc4cc(-c5cnn(C)c5)c(C(F)F)cc43)nn2C2CCN(CC3(F)CCN(c4ccc(C(=O)N[C@H]5CC[C@H](Oc6ccc(C#N)c(Cl)c6)CC5)nn4)CC3)CC2)C1 [Compound 142, 6-[4-[[4-[5-acetyl-3-[7-(difluoromethyl)-6-(1-methylpyrazol-4-yl)-3,4-dihydro-2H-quinolin-1-yl]-6,7-dihydro-4H-pyrazolo[4,3-c]pyridin-1-yl]-1-piperidyl]methyl]-4-fluoro-1-piperidyl]-N-[4-(3-chloro-4-cyano-phenoxy)cyclohexyl]pyridazine-3-carboxamide] | – | < 1 nM |
| CC(=O)N1CCc2c(c(N3CCCc4cc(-c5ccc(OC6CC7(CCN(c8ccc(C(=O)N[C@H]9CC[C@H](Oc%10ccc(C#N)c(Cl)c%10)CC9)nn8)CC7)C6)cc5)c(C(F)F)cc43)nn2C2CCOCC2)C1 [Compound 203, 6-[2-[4-[1-(5-acetyl-1-tetrahydropyran-4-yl-6,7-dihydro-4H-pyrazolo[4,3-c]pyridin-3-yl)-7-(difluoromethyl)-3,4-dihydro-2H-quinolin-6-yl]phenoxy]-7-azaspiro[3.5]nonan-7-yl]-N-[4-(3-chloro-4-cyano-phenoxy)cyclohexyl]pyridazine-3-carboxamide] | – | < 1 nM |

The remaining lines, values ahead:

| IC50 (VCaP cells) | EC50 (AR / CBP ternary complex) | SMILES |
| --- | --- | --- |
| – | < 1 nM | CC(=O)N1CCc2c(c(N3CCCc4cc(-c5cnn(C)c5)c(C)cc43)nn2C2CCN(CC3CCN(c4ccc(C(=O)N[C@H]5CC[C@H](Oc6ccc(C#N)c(C(F)(F)F)c6)CC5)nn4)CC3(C)C)CC2)C1 (stereo partly shown) [Compound 294] |
| – | < 1 nM | CC(=O)N1CCc2c(c(N3CCCc4cc(-c5ccn(C)n5)c(C(F)F)cc43)nn2C2CCC3(CC2)CC(Oc2ccc(C(=O)N[C@H]4CC[C@H](Oc5ccc(C#N)c(Cl)c5)CC4)nn2)C3)C1 (stereo partly shown) [Compound 275] |
| – | > 100 nM | CC(=O)N1CCc2c(c(N3CCCc4cc(-c5cnn(C)c5)c(C(F)F)cc43)nn2[C@H]2CC[C@]3(CCN(c4ccc(C(=O)N[C@H]5CC[C@H](Oc6ccc(C#N)c(Cl)c6)CC5)nn4)C3)CC2)C1 [Compound 264, 6-[8-[5-acetyl-3-[7-(difluoromethyl)-6-(1-methylpyrazol-4-yl)-3,4-dihydro-2H-quinolin-1-yl]-6,7-dihydro-4H-pyrazolo[4,3-c]pyridin-1-yl]-2-azaspiro[4.5]decan-2-yl]-N-[4-(3-chloro-4-cyano-phenoxy)cyclohexyl]pyridazine-3-carboxamide] |
| – | < 1 nM | CC(=O)N1CCc2c(c(N3CCCc4cc(-c5cnn(C)c5)c(C(F)F)cc43)nn2[C@H]2CC[C@@]3(CCCN(C4CN(c5ccc(C(=O)N[C@H]6CC[C@H](Oc7ccc(C#N)c(Cl)c7)CC6)nn5)C4)C3)CC2)C1 [Compound 269, 6-[3-[9-[5-acetyl-3-[7-(difluoromethyl)-6-(1-methylpyrazol-4-yl)-3,4-dihydro-2H-quinolin-1-yl]-6,7-dihydro-4Hpyrazolo[4,3-c]pyridin-1-yl]-2-azaspiro[5.5]undecan-2-yl]azetidin-1-yl]-N-[4-(3-chloro-4-cyanophenoxy)cyclohexyl]pyridazine-3-carboxamide] |
| – | < 1 nM | CC(=O)N1CCc2c(c(N3CCCc4cc(-c5cnn(C)c5)c(C)cc43)nn2C2CCN(C3CCC4(CC3)CN(c3ccc(C(=O)N[C@H]5CC[C@H](Oc6ccc(C#N)c(Cl)c6)CC5)nn3)C4)CC2)C1 [Compound 295] |
